Assay results from patent publication US10828301B2, “2,4-pyrimidinediamine compounds and their uses” (Rigel Pharmaceuticals, Inc, priority 2002, dated 2020).

Tests used:
[1] = test system: cultured human mast cells (CHMC); assay: CHMC low cell density IgE activation: tryptase and LTC4 assays; assay type: cell-based; conditions: Low Density CHMC, anti-IgE activation, tryptase readout, read-out: CHMC anti-IgE Tryptase
Method in brief: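 Degranulation measured after 30 min anti-IgE challenge at 37° C of CHMC plated at 1000-1500 cells/well following 1 h preincubation. Readouts: LTC4 by ELISA on donor-specific diluted supernatants, and tryptase activity from a 30 min room-temperature substrate reaction.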

[2] = test system: cultured human mast cells (CHMC); assay: CHMC low cell density ionomycin activation: tryptase assay; assay type: cell-based; conditions: Low Density CHMC, ionomycin activation, tryptase readout, read-out: CHMC Ionomycin Tryptase

Row | Structure (SMILES) | IC50 ([1]; Homo sapiens, Mast cell) | IC50 ([2]; Homo sapiens, Mast cell) | IC50 [1] | IC50 [2]
1 | Oc1cccc(Nc2ncc(F)c(NCCSCc3c(F)cccc3Cl)n2)c1 [Compound R926724, N4-[2-[(2-Chloro-6-fluorobenzyl)thio]ethyl]-5-fluoro-N2-(3-hydroxyphenyl)-2,4-pyrimidinediamine] | 2.06 µM | > 10 µM |  | 
2 | Cc1cc(O)cc(N(c2ccc3c(c2)OCCO3)c2nc(N)ncc2F)c1 [Compound R926893, N4-(3,4-Ethylenedioxyphenyl)-5-fluoro-N4-(3-hydroxy-5-methylphenyl)-2,4-pyrimidinediamine] | 10 µM | > 10 µM |  | 
3 | O=C(O)C1CCC(Nc2nc(Nc3ccc4c(c3)OCCO4)ncc2F)CC1 (stereo not drawn) [Compound R925795, N4-(4-Carboxycyclohexyl)-N2-(3,4-ethylenedioxyphenyl)-5-fluoro-2,4-pyrimidinediamine] | > 10 µM | > 10 µM |  | 
4 | Fc1cnc(NCc2ccc3c(c2)CCO3)nc1Nc1ccc2c(c1)OCCO2 [Compound R950205, N2-[2,3-Dihydrobenzo[b]furan-5-ylmethyl]-N4-(3,4-ethylenedioxyphenyl)-5-fluoro-2,4-pyrimidinediamine] | 9 µM | > 10 µM |  | 
5 | OCCN(CCO)c1cccc(Nc2ncc(F)c(Nc3ccc4c(c3)OCCO4)n2)c1 [Compound R950209, N2-[3-Bis(hydroxyethyl)aminophenyl]-N4-(3,4-ethylenedioxyphenyl)-5-fluoro-2,4-pyrimidinediamine] | 0.748 µM | > 10 µM |  | 
6 | c1coc(-c2cnc(Nc3ccc4c(c3)OCCO4)nc2Nc2ccc3c(c2)OCCO3)c1 [Compound R925785, N2,N4-Bis(3,4-ethylenedioxyphenyl)-5-(2-furanyl)-2,4-pyrimidinediamine] | 2.5 µM | > 10 µM |  | 
7 | Oc1cccc(Nc2nc(N=Cc3ccoc3)ncc2F)c1 [Compound R950210, N2-(3-Furylmethylene)-5-fluoro-N4-(3-hydroxyphenyl)-2,4-pyrimidinediamine] | 10 µM | > 10 µM |  | 
8 | Clc1cccc(-c2cnc(Nc3ccc4c(c3)OCCO4)nc2Nc2ccc3c(c2)OCCO3)c1 [Compound R925787, N2,N4-Bis(3,4-ethylenedioxyphenyl)-5-(3-chlorophenyl)-2,4-pyrimidinediamine] | 9 µM | > 10 µM |  | 
9 | Fc1cnc(N=Cc2ccoc2)nc1Nc1ccc2c(c1)OCCO2 [Compound R950203, N4-(3,4-Ethylenedioxyphenyl)-N2-(3-furanylmethylene)-5-fluoro-2,4-pyrimidinediamine] | 9.04 µM | > 10 µM |  | 
10 | Oc1cccc(Nc2ncc(F)c(NCc3cccnc3)n2)c1 [Compound R945147, 5-Fluoro-N2-(3-hydroxyphenyl)-N4-(3-pyridylmethyl)-2,4-pyrimidinediamine] | 3.55 µM | > 10 µM |  | 
11 | OCCn1ncc2ccc(Nc3ncc(F)c(Nc4ccc5cnn(CCO)c5c4)n3)cc21 [Compound R935238, N2,N4-Bis[1-(2-hydroxyethyl)indazoline-6-yl]-5-fluoro-2,4-pyrimidinediamine] |  |  | 1.85 µM | > 10 µM
12 | CCOC(=O)Cc1ccc(Nc2ncc(C(F)(F)F)c(Nc3ccc(CC(=O)OCC)cc3)n2)cc1 [Compound R926663, N2,N4-Bis[4-(ethoxycarbonylmethyl)phenyl]-5-trifluoromethyl-2,4-pyrimidinediamine] | > 10 µM | > 10 µM |  | 
13 | Cc1cnc(NCCc2ccc(O)cc2)nc1NCCc1ccc(O)cc1 [Compound R926397, N2,N4-Bis[2-(4-hydroxyphenyl)ethyl]-5-methyl-2,4-pyrimidinediamine] | > 10 µM | > 10 µM |  | 
14 | CCOC(=O)c1cc2cccc(Nc3cc(Nc4ccc5c(c4)OCCO5)c(F)cn3)c2[nH]1 [Compound R926808, N2-(2-Ethoxycarbonylindol-7-yl)-N4-(3,4-ethylenedioxyphenyl)-5-fluoro-2,4-pyridinediamine] | 0.368 µM | > 10 µM |  | 
15 | c1cc(Nc2ccc3c(c2)OCCO3)nc(Nc2ccc3c(c2)OCCO3)n1 [Compound R926243, N2,N4-Bis(3,4-ethylenedioxyphenyl)-2,4-pyrimidinediamine] | 3.1 µM | > 10 µM |  | 
16 | Nc1nc(N(c2ccc(CO)cc2)c2ccc3c(c2)OCCO3)ncc1F [Compound R925760, N2-(3,4-Ethylenedioxyphenyl)-5-fluoro-N2-[4-(hydroxymethyl)phenyl]-2,4-pyrimidinediamine] | 4.85 µM | > 10 µM |  | 
17 | CC(C)(C)OC(=O)C=Nc1cccc(Nc2ncc(F)c(Nc3cccc(N=CC(=O)OC(C)(C)C)c3)n2)c1 [Compound R950177, N2,N4-Bis(3-tert-butoxycarbonylmethyleneaminophenyl)-5-fluoro-2,4-pyrimidinediamine] | 2.36 µM | 8.43 µM |  | 
18 | Fc1cnc(Nc2cccc(OCc3ccccc3)c2)nc1Nc1cccc(OCc2ccccc2)c1 [Compound R926394, N2,N4-Bis(3-benzyloxyphenyl)-5-fluoro-2,4-pyrimidinediamine] | > 10 µM | > 10 µM |  | 
19 | O=[N+]([O-])c1cnc(Nc2ccc3c(c2)OC(F)(F)O3)nc1Nc1ccc2c(c1)OC(F)(F)O2 [Compound R940100, N2,N4-Bis-(2,2-difluoro-1,3-benzodioxol-5-yl)-5-nitro-2,4-pyrimidinediamine] | > 10 µM | > 10 µM |  | 
20 | CC(Nc1nc(Nc2cccc(O)c2)ncc1F)c1ccc(F)cc1 (racemic) [Compound R935021, (±)-5-Fluoro-N4-[1-(4-fluorophenyl)ethyl]-N2-(3-hydroxyphenyl)-2,4-pyrimidinediamine] | > 10 µM | > 10 µM |  | 

Second part, the molecule after the results:

Row | IC50 ([1]; Homo sapiens, Mast cell) | IC50 ([2]; Homo sapiens, Mast cell) | IC50 [1] | IC50 [2] | Structure (SMILES)
21 | 1.98 µM | > 10 µM |  |  | COC(=O)c1cc(Nc2ncc(F)c(Nc3cccc(O)c3)n2)ccc1OC [Compound R940301, 5-Fluoro-N4-(3-hydroxyphenyl)-N2-(3-methyloxycarbonyl-4-methoxyphenyl)-2,4-pyrimidinediamine]
22 | 0.27 µM | > 10 µM |  |  | COC(=O)c1cc2cc(Nc3ncc(F)c(Nc4ccc(C(C)(C)C)cc4)n3)ccc2o1 [Compound R926477, N4-(4-tert-Butylphenyl)-5-fluoro-N2-(2-methoxycarbonylbenzofuran-5-yl)-2,4-pyrimidinediamine]
23 | 0.361 µM | > 10 µM |  |  | Fc1cnc(Nc2ccc3cc[nH]c3c2)nc1Nc1ccc2c(c1)OCCO2 [Compound R926750, N4-(3,4-Ethylenedioxyphenyl)-5-fluoro-N2-[(1H)-indol-6-yl]-2,4-pyrimidinediamine]
24 | 0.551 µM | > 10 µM |  |  | Oc1cccc(Nc2nc(Nc3cccc(-c4cc[nH]n4)c3)ncc2F)c1 [Compound R926841, 5-Fluoro-N4-(3-hydroxyphenyl)-N2-[3-(1H-pyrazol-3-yl)phenyl]-2,4-pyrimidinediamine]
25 | 0.133 µM | 10 µM |  |  | Oc1cccc(Nc2nc(Nc3cccc(-c4cnco4)c3)ncc2F)c1 [Compound R926831, 5-Fluoro-N4-(3-hydroxyphenyl)-N2-[3-(1,3-oxazol-5-yl)phenyl]-2,4-pyrimidinediamine]
26 | 1.38 µM | > 10 µM |  |  | OCCOc1ccc(Nc2ncc(F)c(Nc3ccc4oc(CO)cc4c3)n2)cc1 [Compound R935174, 5-Fluoro-N2-[4-(2-hydroxyethoxy)phenyl]-N4-(2-hydroxymethylbenzofur-5-yl)-2,4-pyrimidinediamine]
27 | 1.36 µM | > 10 µM |  |  | OBc1cccc(Nc2nc(Nc3ccc4c(c3)OCCO4)ncc2F)c1 [Compound R926756, N2-(3,4-Ethylenedioxyphenyl)-5-fluoro-N4-(3-hydroxyborylphenyl)-2,4-pyrimidinediamine]
28 | 1.17 µM | > 10 µM |  |  | OCCOc1cccc(Nc2nc(Nc3ccc4c(c3)OCCO4)ncc2F)c1 [Compound R935176, N2-(3,4-Ethylenedioxyphenyl)-5-fluoro-N4-[3-(2-hydroxyethoxy)phenyl]-2,4-pyrimidinediamine]
29 | 0.414 µM | > 10 µM |  |  | CC(C)c1ccc(Nc2ncc(F)c(Nc3cccc(O)c3)n2)cc1 [Compound R926778, 5-Fluoro-N4-(3-hydroxyphenyl)-N2-(4-isopropylphenyl)-2,4-pyrimidinediamine]
30 | 1.38 µM | > 10 µM |  |  | CCOc1ccc(Nc2ncc(F)c(Nc3ccc(OCC)c(N)c3)n2)cc1N [Compound R950139, N2,N4-Bis(3-amino-4-ethoxyphenyl)-5-fluoro-2,4-pyrimidinediamine]
31 | 0.525 µM | 5.53 µM |  |  | COC(=O)c1cc2cc(Nc3ncc(F)c(Nc4cccc(C(C)(C)C)c4)n3)ccc2o1 [Compound R940281, N4-(3-tert-Butylphenyl)-5-fluoro-N2-(2-methoxycarbonylbenzofur-5-yl)-2,4-pyrimidinediamine]
32 | 8.03 µM | > 10 µM |  |  | Oc1cccc(Nc2nc(Nc3ccc4c(c3)CCO4)ncc2F)c1 [Compound R909250, N2-(2,3-Dihydrobenzofuran-5-yl)-5-fluoro-N4-(3-hydroxyphenyl)-2,4-pyrimidinediamine]
33 | 3.4 µM | > 10 µM |  |  | Oc1ccc(Nc2ncc(F)c(Nc3ccc(O)cc3)n2)cc1 [Compound R926405, N2,N4-Bis(4-hydroxyphenyl)-5-fluoro-2,4-pyrimidinediamine]
34 | > 10 µM | > 10 µM |  |  | O=C(O)c1cccc(Nc2ncc(F)c(Nc3cccc(C(=O)O)c3)n2)c1 [Compound R945036, N2,N4-Bis(3-carboxyphenyl)-5-fluoro-2,4-pyrimidinediamine]
35 | > 10 µM | > 10 µM |  |  | CC(=O)Nc1ccc(Nc2ncc(F)c(Nc3ccc(NC(C)=O)cc3)n2)cc1 [Compound R940222, N2,N4-Bis-(4-Acetamidophenyl)-5-fluoro-2,4-pyrimidinediamine]
36 | > 10 µM | > 10 µM |  |  | CCOC(=O)c1cnc(Nc2ccc(CC#N)cc2)nc1Nc1ccc(CC#N)cc1 [Compound R926319, N2,N4-Bis(4-cyanomethylphenyl)-5-ethoxycarbonyl-2,4-pyrimidinediamine]
